This is an account of results in patent publication US20220204473A1, “COMPOUND AS IRAK INHIBITOR” (SHANGHAI MEIYUE BIOTECH DEVELOPMENT CO., LTD., priority 2018, published 2022).

One experiment has as its target T1, CYP2C19 (Homo sapiens, UniProt P33261).
T1 construct: tissue Corning (USA); host or cells: mixed human liver microsomes
As to the kind of experiment: CYP450 inhibition in human liver microsomes, CYP2C19. The format is in vitro ADME. The note with it: human liver microsomes, probe mephenytoin; read-out: IC50, subtype 2C19. On the procedure:
(§1) This study was intended to investigate the inhibitory effect of the test compounds on five major CYP450 enzyme subtypes CYP1A2, 2C9, 2C19, 2D6 and 3A4 in human liver microsomes. The mixed human liver microsomes used in this assay were purchased from Corning (USA). The test compounds were co-incubated at 7 concentrations with human liver microsomes and five probe substrates (phenacetin for CYP1a2, diclofenac for CYP2C9, mephenytoin for CYP2C19, dextromethorphan for CYP2D6, midazolam for CYP3A4-M, mixed). The reaction was initiated by adding coenzyme NADPH, and terminated by adding acetonitrile containing internal standard. After the proteins were precipitated, the supernatant was centrifuged. The characteristic metabolites in the supernatant (acetaminophen for CYP1A2, 4-hydroxydiclofenac for CYP2C9, 4-hydroxymephenytoin for CYP2C19, dextrorphan for CYP2D6, 1-hydroxymidazolam for CYP3A4-M) were analyzed by LC-MS/MS. The influence of the test compounds on production of the characteristic metabolites was finally analyzed on the basis of the data obtained. A selective inhibitor (ketoconazole for CYP3A4-M) was used as positive control. All samples were tested in duplicate.
(Liver microsomes are vesicles of endoplasmic reticulum, rich in cytochrome P450 enzymes.)

For another experiment, the target named is T2, CYP2D6 (Homo sapiens, UniProt P10635).
T2 construct: tissue Corning (USA); host or cells: mixed human liver microsomes
T2 sequence (P10635 whole entry): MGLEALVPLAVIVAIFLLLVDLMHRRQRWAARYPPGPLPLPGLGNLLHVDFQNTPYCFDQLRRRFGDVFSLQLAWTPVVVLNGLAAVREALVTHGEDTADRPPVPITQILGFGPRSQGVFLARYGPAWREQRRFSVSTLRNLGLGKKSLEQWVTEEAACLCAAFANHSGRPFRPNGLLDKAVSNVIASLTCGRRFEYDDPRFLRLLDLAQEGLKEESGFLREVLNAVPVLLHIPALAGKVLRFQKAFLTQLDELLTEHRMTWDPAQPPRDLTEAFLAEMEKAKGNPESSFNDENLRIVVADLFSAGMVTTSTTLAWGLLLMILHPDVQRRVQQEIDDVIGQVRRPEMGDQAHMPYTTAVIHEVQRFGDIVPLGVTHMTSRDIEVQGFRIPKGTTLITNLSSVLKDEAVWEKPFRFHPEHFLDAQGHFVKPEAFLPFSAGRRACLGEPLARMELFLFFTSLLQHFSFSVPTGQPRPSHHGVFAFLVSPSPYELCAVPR
As to the kind of experiment: CYP450 inhibition in human liver microsomes, CYP2D6. Type of experiment: in vitro ADME. The note with it: human liver microsomes, probe dextromethorphan; read-out: IC50, subtype 2D6. Here is the method: as §1

The target of the next experiment is T3, CYP3A4 (Homo sapiens, UniProt P08684).
T3 construct: tissue Corning (USA); host or cells: mixed human liver microsomes
T3 sequence (P08684 whole entry): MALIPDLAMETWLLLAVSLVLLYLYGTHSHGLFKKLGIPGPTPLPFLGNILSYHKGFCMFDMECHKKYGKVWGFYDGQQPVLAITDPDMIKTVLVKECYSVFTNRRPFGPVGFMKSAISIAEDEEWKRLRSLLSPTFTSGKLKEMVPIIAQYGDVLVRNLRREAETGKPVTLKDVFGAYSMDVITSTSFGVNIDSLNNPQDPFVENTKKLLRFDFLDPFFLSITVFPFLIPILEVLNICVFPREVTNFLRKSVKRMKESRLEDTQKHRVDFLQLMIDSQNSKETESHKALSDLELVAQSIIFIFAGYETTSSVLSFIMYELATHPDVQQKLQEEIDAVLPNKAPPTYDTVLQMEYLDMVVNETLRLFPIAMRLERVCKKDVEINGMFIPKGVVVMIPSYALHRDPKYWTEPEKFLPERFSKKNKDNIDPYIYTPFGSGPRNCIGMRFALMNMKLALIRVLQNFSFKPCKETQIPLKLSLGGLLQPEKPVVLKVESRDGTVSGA
Description: CYP450 inhibition in human liver microsomes, CYP3A4. The format is in vitro ADME. As to conditions: human liver microsomes, probe midazolam; read-out: IC50, subtype 3A4. Here is the method: as §1

A further experiment addresses T4, CYP1A2 (Homo sapiens, UniProt P05177).
T4 construct: tissue Corning (USA); host or cells: mixed human liver microsomes
T4 sequence (P05177 1-516): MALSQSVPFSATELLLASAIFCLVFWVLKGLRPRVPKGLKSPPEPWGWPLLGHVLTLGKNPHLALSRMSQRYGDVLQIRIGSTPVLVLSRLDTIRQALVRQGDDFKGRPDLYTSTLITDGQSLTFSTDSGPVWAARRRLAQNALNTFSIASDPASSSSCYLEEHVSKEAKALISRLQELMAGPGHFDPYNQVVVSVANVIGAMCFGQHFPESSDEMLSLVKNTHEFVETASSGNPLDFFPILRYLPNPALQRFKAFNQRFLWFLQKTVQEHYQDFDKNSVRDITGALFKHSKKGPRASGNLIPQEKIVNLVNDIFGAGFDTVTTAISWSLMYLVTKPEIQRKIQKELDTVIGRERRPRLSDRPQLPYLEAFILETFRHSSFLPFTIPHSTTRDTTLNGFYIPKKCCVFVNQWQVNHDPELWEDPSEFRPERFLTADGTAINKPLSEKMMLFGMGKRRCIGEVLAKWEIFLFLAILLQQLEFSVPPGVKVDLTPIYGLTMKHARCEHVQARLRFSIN
Description: CYP450 inhibition in human liver microsomes, CYP1A2. Type of experiment: in vitro ADME. The note with it: human liver microsomes, probe phenacetin; read-out: IC50, subtype 1A2. On the procedure:
as §1

In experiment [1] the test system is IL-6 release in LPS-induced Balb/c female mice. As to the kind of experiment: Inhibition of IL-6 release in LPS-induced Balb/c female mice. As to conditions: administered 5 h before LPS induction, serum. The format is in vivo, mouse. Set-up: concentration or dose not given beside the values. On the procedure: Objective of the test: To determine the inhibitory effect of the compounds by measuring the plasma IL-6 concentration in a Balb/c mouse model with LPS-induced inflammation.
2.1 Prepared mouse serum samples (sample batch no. 20181218)
4.1 Reagent kit was equilibrated at room temperature (25-28° C.) for 20 min. After each detection, the remaining reagents were stored at 4° C.
4.3 Preparing reference standard: 1 vial of reference standard substance was added with labeled volume of reference standard diluent. The mixtures were incubated for 15 min at room temperature. Then the mixtures were gently mixed to completely dissolve the substance to prepare a reference standard stock at a final concentration of 1000 μg/mL.
4.4 Dilution of samples: The sample in each group was diluted by […], i.e., a 2-fold dilution with sample assay buffer followed by another two-fold dilution with standard diluent.
4.5 The diluted samples or standards of different concentrations were added into corresponding wells at 100 μL/well respectively, and a background correcting well (or a blank well) was set by adding only TMB buffer and terminating solution. The wells were sealed with a transparent film and incubated at room temperature for 120 min.
4.6 The plate was subjected to 5 washes, each with 300 μL of washing buffer for 15-30 sec. The plate was dried on thick absorbent paper after the last wash.
4.7 Biotinylated antibody was added at 100 μL/well (Note: the biotinylated antibody was prepared in advance and could be used directly without further dilution). The wells were sealed with a transparent film and incubated at room temperature for 60 min.
4.8 The plate was subjected to 5 washes, each with 300 μL of washing buffer for 15-30 sec. The plate was dried on thick absorbent paper after the last wash.
4.9 Horseradish peroxidase-labeled streptavidin was added at 100 μL/well. The wells were sealed with a white film and incubated away from light at room temperature for 20 min.
4.10 The plate was subjected to 5 washes, each with 300 μL of washing buffer for 15-30 sec. The plate was dried on thick absorbent paper after the last wash.
4.11 The chromogenic reagent TMB was added 100 μL/well. The wells were sealed with a white film and incubated away from light at room temperature for 20 min.
4.12 The terminating solution was added at 50 μL/well and A450 value was measured right after mixing.

The test system of experiment [2] is cytokine TNF-α in LPS-induced human PBMCs. As to the kind of experiment: Inhibition of cytokine TNF-α in LPS-induced human PBMC (ELISA). The format is cell-based. As to conditions: 0.1 μg/mL LPS for 4 h. On the procedure:
Procedures: Cytokine production in human PBMCs (peripheral blood mononuclear cells) was induced by LPS (lipopolysaccharide) in vitro, and the inhibitory effect of the compounds on induced cytokine production in human PBMCs was investigated.
Fresh human PBMC was centrifuged for 10 min at room temperature at 450×g and the supernatant was discarded. The PBMC was resuspended in complete RPMI 1640 medium.
The assay was performed in complete medium. PBMC was seeded at a density of 1×10^5 cells/well into a 96-well plate. The compounds according to the present disclosure were serially diluted in an isotonic 100% DMSO solution to 8 concentrations from 20 μM to 0.002 nM respectively, with the final DMSO concentration being 0.25%. Cells were pre-incubated with the formulated compounds for 30 min at 37° C. prior to stimulation. To induce cytokine secretion, cells were stimulated with 0.1 μg/mL LPS (Sigma, Escherichia coli O111:B4) for 4 h at 37° C. The cell culture supernatant was then separated by centrifugation at 450×g for 10 min at room temperature.
The amount of secreted TNF-α in the supernatants was determined using the human TNF-α ELISA kit according to the manufacturer's instruction.
The readings of absorbance at A450 were measured with a microplate reader SpectraMax i3x (Molecular Device) for calculating the inhibition of the compounds, and IC50 values were calculated with GraphPad Prism 7.0 software respectively.
(An ELISA detects its analyte on a solid surface through an enzyme-linked reagent.)

pIC50: −log10 of the molar value.

T1 sequence (P33261 whole entry): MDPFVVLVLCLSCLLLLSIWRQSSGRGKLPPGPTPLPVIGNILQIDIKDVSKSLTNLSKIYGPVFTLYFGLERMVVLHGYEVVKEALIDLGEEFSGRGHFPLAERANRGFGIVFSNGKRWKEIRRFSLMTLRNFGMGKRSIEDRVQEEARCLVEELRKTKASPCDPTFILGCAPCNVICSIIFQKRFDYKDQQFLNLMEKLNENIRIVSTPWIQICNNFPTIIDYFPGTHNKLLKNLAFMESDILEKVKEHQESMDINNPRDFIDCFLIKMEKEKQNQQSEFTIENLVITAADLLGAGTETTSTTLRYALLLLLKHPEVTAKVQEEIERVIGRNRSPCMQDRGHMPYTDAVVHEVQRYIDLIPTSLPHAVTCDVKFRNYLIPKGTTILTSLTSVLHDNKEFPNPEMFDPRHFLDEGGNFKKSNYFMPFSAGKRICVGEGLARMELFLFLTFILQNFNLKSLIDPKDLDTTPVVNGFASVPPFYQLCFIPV

The term pIC50 denotes −log10 of the IC50, conventionally taken in molar units. `CC(C)(O)c1cc2nn([C@H]3CC[C@](C)(O)CC3)cc2cc1NC(=O)c1cccc(C(C)(F)F)n1` [MY-004-165]: the pIC50 at CYP2C19, on CYP2D6, on CYP3A4 and on CYP1A2 was under 4.52 throughout.
In the case of `COc1cc2nn([C@H]3CC[C@H](O)CC3)cc2cc1NC(=O)c1cccc(C(F)(F)F)n1` [MY-004-127-1], the negative-log IC50 (pIC50) on CYP2C19, at CYP2D6, on CYP3A4 and on CYP1A2 was under 4.52 in each case. Also, in experiment [1], the “Inhibition rate of IL-6” value turned out to be 83.28%.
Usually IC50 stands for the concentration at which inhibition is half-maximal. In the case of `CN(C)c1cc2nn([C@H]3CC[C@H](O)CC3)cc2cc1NC(=O)c1cccc(C(F)(F)F)n1` [MY-004-153], half-maximal inhibition in experiment [2] (IC50) required 191 nM.
Regarding `COc1cc2nn([C@H]3CC[C@@](C)(O)CC3)cc2cc1NC(=O)c1cccc(C(F)(F)F)n1` [MY-004-126-2], in experiment [1], the “Inhibition rate of IL-6” value is reported as 93.39%.
In the case of `CN(C)c1cc2nn([C@H]3C[C@H](C(C)(C)O)C3)cc2cc1NC(=O)c1cccc(C(F)(F)F)n1` [MY-004-089], the IC50 in experiment [2] turned out to be 165 nM. The “Inhibition rate of IL-6” value in experiment [1] is reported as 94.33%.
In the case of `COc1cc2nn([C@H]3CC[C@](C)(O)CC3)cc2cc1NC(=O)c1cccc(C(F)(F)F)n1` [MY-004-126-1], the pIC50 at CYP2C19, at CYP2D6, on CYP3A4 and on CYP1A2 was under 4.52 throughout. Further, in experiment [2], half-maximal inhibition (IC50) required 71.8 nM. Moreover, the “Inhibition rate of IL-6” value in experiment [1] is recorded as 97.05%.
